Laboratory results from the Kinase Knowledgebase extract (Sharma et al. 2016).

target: EGFR (UniProt P00533)
Sequence (P00533 whole entry, looked up): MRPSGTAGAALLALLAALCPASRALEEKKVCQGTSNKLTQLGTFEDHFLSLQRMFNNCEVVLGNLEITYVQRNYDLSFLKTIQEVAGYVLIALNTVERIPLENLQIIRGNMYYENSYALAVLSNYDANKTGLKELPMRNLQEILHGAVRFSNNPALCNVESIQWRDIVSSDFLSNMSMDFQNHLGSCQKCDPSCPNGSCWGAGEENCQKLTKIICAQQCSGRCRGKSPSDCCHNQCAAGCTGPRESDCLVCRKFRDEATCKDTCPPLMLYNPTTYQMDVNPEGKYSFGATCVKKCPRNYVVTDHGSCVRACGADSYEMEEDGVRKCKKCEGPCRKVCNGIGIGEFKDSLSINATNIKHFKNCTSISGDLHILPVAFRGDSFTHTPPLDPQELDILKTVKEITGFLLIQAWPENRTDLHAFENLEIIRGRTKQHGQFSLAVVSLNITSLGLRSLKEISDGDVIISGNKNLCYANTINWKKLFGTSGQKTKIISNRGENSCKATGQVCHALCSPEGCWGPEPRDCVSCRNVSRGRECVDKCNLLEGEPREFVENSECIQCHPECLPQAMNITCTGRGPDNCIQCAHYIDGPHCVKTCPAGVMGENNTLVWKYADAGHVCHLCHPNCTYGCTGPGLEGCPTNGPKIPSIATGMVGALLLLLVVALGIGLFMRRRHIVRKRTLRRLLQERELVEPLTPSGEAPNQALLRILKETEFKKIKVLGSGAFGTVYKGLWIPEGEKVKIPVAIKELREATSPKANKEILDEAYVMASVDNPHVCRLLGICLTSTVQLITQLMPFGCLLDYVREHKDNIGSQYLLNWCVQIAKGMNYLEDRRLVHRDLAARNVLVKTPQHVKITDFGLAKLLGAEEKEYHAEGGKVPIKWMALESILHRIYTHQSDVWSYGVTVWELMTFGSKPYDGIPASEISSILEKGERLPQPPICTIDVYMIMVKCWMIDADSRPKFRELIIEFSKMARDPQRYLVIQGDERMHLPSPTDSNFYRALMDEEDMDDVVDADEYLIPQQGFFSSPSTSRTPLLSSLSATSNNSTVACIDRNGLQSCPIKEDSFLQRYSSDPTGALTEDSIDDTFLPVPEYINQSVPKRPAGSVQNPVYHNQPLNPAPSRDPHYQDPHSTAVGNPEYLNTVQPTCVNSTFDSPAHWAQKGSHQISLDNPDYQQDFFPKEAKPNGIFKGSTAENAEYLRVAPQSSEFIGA

| IC50 [nM] | SMILES |
| --- | --- |
| 50 to 500 | CCN1CCC(Nc2ccc3c(c2)/C(=C(\c2ccc(C)cc2)c2ncc[nH]2)C(=O)N3)CC1 |
| 500 to 5000 | CCN1CCC(Nc2ccc3c(c2)/C(=C(\c2ccc(C)cc2)c2nc4cc(OC)ccc4[nH]2)C(=O)N3)CC1 |
| > 5000 | CCN1CCC(Nc2ccc3c(c2)/C(=C(\c2ccc(C(F)(F)F)nc2)c2ncc[nH]2)C(=O)N3)CC1 |
| < 50 | CCN1CCC(Nc2ccc3c(c2)/C(=C(\c2ccc(C)c(F)c2)c2nc4ccccc4[nH]2)C(=O)N3)CC1 |
| > 5000 | O=C1Nc2ccc(NC3CCN(CCN4CCOCC4)CC3)cc2/C1=C(\c1cccc(F)c1)c1ncc[nH]1 |
| 50 to 500 | CCN1CCC(Nc2ccc3c(c2)/C(=C(\c2ccc(F)cc2)c2nc(C)c[nH]2)C(=O)N3)CC1 |
| 50 to 500 | CCN1CCC(Nc2ccc3c(c2)/C(=C(\c2ccc(Cl)cc2)c2nc4ccccc4[nH]2)C(=O)N3)CC1 |
| 500 to 5000 | CCN1CCCC(Nc2ccc3c(c2)/C(=C(\c2ccccc2)c2nc4cc(OC)ccc4[nH]2)C(=O)N3)C1 (stereo unspecified) |
| 500 to 5000 | CCN1CCC(Oc2ccc3c(c2)/C(=C(\c2cc(F)cc(F)c2)c2nc4ccccc4[nH]2)C(=O)N3)CC1 |
| 500 to 5000 | CCN1CCC(Nc2ccc3c(c2)/C(=C(\c2cccc(N)c2)c2nc4ccccc4[nH]2)C(=O)N3)CC1 |
| 50 to 500 | COCCN1CCC(Nc2ccc3c(c2)/C(=C(\c2cc(F)cc(F)c2)c2ncc[nH]2)C(=O)N3)CC1 |
| 50 to 500 | CCN1CCC(Nc2ccc3c(c2)/C(=C(\c2cc(F)cc(F)c2)c2nc(C)c[nH]2)C(=O)N3)CC1 |
| 50 to 500 | CCN1CCC(Nc2ccc3c(c2)/C(=C(\c2cccc(F)c2)c2nc(-c4ccccc4)c[nH]2)C(=O)N3)CC1 |
| < 50 | CCN1CCC(Nc2ccc3c(c2)/C(=C(\c2ccc(C)c(F)c2)c2nc(C)c[nH]2)C(=O)N3)CC1 |
| 500 to 5000 | COCCN1CCC(Nc2ccc3c(c2)/C(=C(\c2cccc(Cl)c2)c2nc4ccccc4[nH]2)C(=O)N3)CC1 |
| > 5000 | COCCN1CCC(Nc2ccc3c(c2)/C(=C(\c2ccc(C(F)(F)F)cc2)c2ncc[nH]2)C(=O)N3)CC1 |
| 500 to 5000 | CCN1CCC(Nc2ccc3c(c2)/C(=C(\c2ccc(F)cc2)c2ncc[nH]2)C(=O)N3)CC1 |
| > 5000 | O=C1Nc2ccc(NC3CCN(CCN4CCCCC4)CC3)cc2/C1=C(\c1cccc(F)c1)c1ncc[nH]1 |
| 50 to 500 | CCN1CCC(Nc2ccc3c(c2)/C(=C(\c2cc(F)cc(F)c2)c2ncc[nH]2)C(=O)N3)CC1 |
| 500 to 5000 | CC1(C)CC(Nc2ccc3c(c2)/C(=C(\c2ccccc2)c2nc4ccccc4[nH]2)C(=O)N3)CC(C)(C)N1 |
| > 5000 | CCN1CCC(Nc2ccc3c(c2)/C(=C(/c2cc(F)cc(F)c2)c2nc4cc(F)ccc4[nH]2)C(=O)N3)CC1 |
| 50 to 500 | CCN1CCC(Nc2ccc3c(c2)/C(=C(\c2cccc(OC)c2)c2nc4ccccc4[nH]2)C(=O)N3)CC1 |
| 500 to 5000 | O=C1Nc2ccc(OC3CCN(Cc4ccccc4)CC3)cc2/C1=C(\c1ccccc1)c1nc2ccccc2[nH]1 |
| 500 to 5000 | CCN1CCC(Nc2ccc3c(c2)/C(=C(\c2ccc(C(F)(F)F)cc2)c2ncc[nH]2)C(=O)N3)CC1 |
| > 5000 | COCCN1CCC(Nc2ccc3c(c2)/C(=C(\c2ccc(C(F)(F)F)c(F)c2)c2ncc[nH]2)C(=O)N3)CC1 |
| 500 to 5000 | CCN1CCC(Oc2ccc3c(c2)/C(=C(\c2cccc(OC)c2)c2nc4ccccc4[nH]2)C(=O)N3)CC1 |
| 50 to 500 | CCN1CCC(Nc2ccc3c(c2)/C(=C(/c2ncc[nH]2)c2ccccc2F)C(=O)N3)CC1 |

| IC50 [nM] | SMILES |
| --- | --- |
| 500 to 5000 | CCN1CCC(Oc2ccc3c(c2)/C(=C(\c2cccc(Cl)c2)c2nc4ccccc4[nH]2)C(=O)N3)CC1 |
| < 50 | COCCN1CCC(Nc2ccc3c(c2)/C(=C(\c2ccc(C)c(F)c2)c2nc(C)c[nH]2)C(=O)N3)CC1 |
| > 5000 | COCCN1CCC(Nc2ccc3c(c2)/C(=C(\c2ccc(C(F)(F)F)nc2)c2ncc[nH]2)C(=O)N3)CC1 |
| 500 to 5000 | CCN1CCC(Oc2ccc3c(c2)/C(=C(\c2cccc(Cl)c2)c2ncc[nH]2)C(=O)N3)CC1 |
| 50 to 500 | COCCN1CCC(Nc2ccc3c(c2)/C(=C(\c2cccc(F)c2)c2ncc[nH]2)C(=O)N3)CC1 |
| 50 to 500 | COCCN1CCC(Nc2ccc3c(c2)/C(=C(\c2cccc(F)c2)c2nc4ccccc4[nH]2)C(=O)N3)CC1 |
| 500 to 5000 | CCN1CCC(Nc2ccc3c(c2)/C(=C(\c2ccc(F)c(F)c2)c2ncc[nH]2)C(=O)N3)CC1 |
| 50 to 500 | CCN1CCC(Nc2ccc3c(c2)/C(=C(\c2cc(F)cc(F)c2)c2nc4cc(F)ccc4[nH]2)C(=O)N3)CC1 |
| < 50 | CCN1CCC(Nc2ccc3c(c2)/C(=C(\c2ccc(F)c(F)c2)c2nc(C)c[nH]2)C(=O)N3)CC1 |
| > 5000 | COCCN1CCC(Nc2ccc3c(c2)/C(=C(\c2ccc(Cl)cc2)c2ncc[nH]2)C(=O)N3)CC1 |
| 50 to 500 | CCN1CCC(Nc2ccc3c(c2)/C(=C(/c2ncc[nH]2)c2ccc(C(F)(F)F)cc2F)C(=O)N3)CC1 |
| 50 to 500 | CCN1CCC(Nc2ccc3c(c2)/C(=C(\c2ccc(F)c(Cl)c2)c2nc(C)c[nH]2)C(=O)N3)CC1 |
| > 5000 | O=C1Nc2ccc(NC3CCNCC3)cc2/C1=C(\c1cccc(F)c1)c1ncc[nH]1 |
| > 5000 | COCCN1CCC(Nc2ccc3c(c2)/C(=C(\c2ccccc2)c2nc4cc(Cl)ccc4[nH]2)C(=O)N3)CC1 |
| > 5000 | COCCN1CCC(Nc2ccc3c(c2)/C(=C(\c2ccc(F)cc2)c2ncc[nH]2)C(=O)N3)CC1 |
| 50 to 500 | CCN1CCC(Nc2ccc3c(c2)/C(=C(/c2nc(C)c[nH]2)c2cc(F)c(Cl)cc2Cl)C(=O)N3)CC1 |
| 500 to 5000 | CCN1CCC(Nc2ccc3c(c2)/C(=C(\c2ccc([N+](=O)[O-])cc2)c2nc4ccccc4[nH]2)C(=O)N3)CC1 |
| 50 to 500 | COCCN1CCC(Oc2ccc3c(c2)/C(=C(\c2cccc(Cl)c2)c2nc4ccccc4[nH]2)C(=O)N3)CC1 |
| 50 to 500 | COCCN1CCC(Nc2ccc3c(c2)/C(=C(\c2ccc(C)cc2)c2nc(C)c[nH]2)C(=O)N3)CC1 |
| 500 to 5000 | CCN1CCC(Nc2ccc3c(c2)/C(=C(\c2ccccc2)c2nc(CCN4C(=O)c5ccccc5C4=O)c[nH]2)C(=O)N3)CC1 |
| > 5000 | COCCN1CCC(Nc2ccc3c(c2)/C(=C(\c2ccccc2)c2ncc[nH]2)C(=O)N3)CC1 |
| < 50 | CCN1CCC(Nc2ccc3c(c2)/C(=C(/c2nc(C)c[nH]2)c2ccc(Cl)cc2F)C(=O)N3)CC1 |
| 50 to 500 | COCCN1CCC(Nc2ccc3c(c2)/C(=C(\c2cc(F)cc(F)c2)c2nc(C)c[nH]2)C(=O)N3)CC1 |
| 50 to 500 | CCN1CCC(Nc2ccc3c(c2)/C(=C(\c2ccc(N)cc2)c2nc4ccccc4[nH]2)C(=O)N3)CC1 |
| 50 to 500 | CCN1CCC(Nc2ccc3c(c2)/C(=C(\c2cccc(Cl)c2)c2nc4ccccc4[nH]2)C(=O)N3)CC1 |
| > 5000 | COCCN1CCC(Nc2ccc3c(c2)/C(=C(\c2ccc(OC)cc2)c2ncc[nH]2)C(=O)N3)CC1 |
| 500 to 5000 | CS(=O)(=O)N1CCC(Nc2ccc3c(c2)/C(=C(\c2ccccc2)c2nc4ccccc4[nH]2)C(=O)N3)CC1 |

| IC50 [nM] | SMILES |
| --- | --- |
| 50 to 500 | CCN1CCC(Nc2ccc3c(c2)/C(=C(/c2nc(C)c[nH]2)c2ccc(F)cc2F)C(=O)N3)CC1 |
| 500 to 5000 | COCCN1CCC(Oc2ccc3c(c2)/C(=C(\c2cc(F)cc(F)c2)c2nc4ccccc4[nH]2)C(=O)N3)CC1 |
| 50 to 500 | CCN1CCC(Nc2ccc3c(c2)/C(=C(/c2nc(C)c[nH]2)c2ccc(C(F)(F)F)cc2F)C(=O)N3)CC1 |
| 50 to 500 | Cc1ccc(/C(=C2/C(=O)Nc3ccc(NC4CCN(C)CC4)cc32)c2ncc[nH]2)cc1 |
| 50 to 500 | COCCN1CCC(Nc2ccc3c(c2)/C(=C(\c2cccc(F)c2)c2nc(-c4ccccc4)c[nH]2)C(=O)N3)CC1 |
| < 50 | CCN1CCC(Nc2ccc3c(c2)/C(=C(\c2ccc(C(F)(F)F)c(F)c2)c2nc(C)c[nH]2)C(=O)N3)CC1 |
| 50 to 500 | CCN1CCC(Nc2ccc3c(c2)/C(=C(\c2ccc(C(F)(F)F)c(F)c2)c2ncc[nH]2)C(=O)N3)CC1 |
| > 5000 | COCCN1CCC(Nc2ccc3c(c2)/C(=C(\c2ccc(F)c(F)c2)c2ncc[nH]2)C(=O)N3)CC1 |
| > 5000 | CS(=O)(=O)N1CCC(Nc2ccc3c(c2)/C(=C(\c2cccc(F)c2)c2ncc[nH]2)C(=O)N3)CC1 |
| 500 to 5000 | CCN1CCC(Nc2ccc3c(c2)/C(=C(\c2cccc(C(F)(F)F)c2)c2nc(C)c[nH]2)C(=O)N3)CC1 |
| 500 to 5000 | O=C1Nc2ccc(NC3CCNCC3)cc2/C1=C(\c1ccccc1)c1nc2ccccc2[nH]1 |
| 50 to 500 | CCN1CCC(Nc2ccc3c(c2)/C(=C(/c2nc(C)c[nH]2)c2cccc(F)c2F)C(=O)N3)CC1 |
| 50 to 500 | COCCN1CCC(Nc2ccc3c(c2)/C(=C(\c2cccc(F)c2)c2nc(C)c[nH]2)C(=O)N3)CC1 |
| 500 to 5000 | COc1ccc2[nH]c(/C(=C3\C(=O)Nc4ccc(NC5CCN(Cc6ccccc6)C5)cc43)c3ccccc3)nc2c1 (stereo unspecified) |
| 500 to 5000 | CCN1CCC(Nc2ccc3c(c2)/C(=C(\c2cccc(C(=N)N)c2)c2nc4ccccc4[nH]2)C(=O)N3)CC1 |
| > 5000 | CCOC(=O)c1[nH]c(/C(=C2\C(=O)Nc3ccc(NC4CCN(CCOC)CC4)cc32)c2cccc(F)c2)nc1C |
| > 5000 | CCN(CC)CCN1CCC(Nc2ccc3c(c2)/C(=C(\c2cccc(F)c2)c2ncc[nH]2)C(=O)N3)CC1 |
| 50 to 500 | CCN1CCC(Nc2ccc3c(c2)/C(=C(\c2ccc(Cl)cc2)c2nc(C)c[nH]2)C(=O)N3)CC1 |
| 500 to 5000 | CCN1CCC(Nc2ccc3c(c2)/C(=C(\c2ccc(OC)cc2)c2nc4cc(OC)ccc4[nH]2)C(=O)N3)CC1 |
| 50 to 500 | CCN1CCC(Nc2ccc3c(c2)/C(=C(/c2ncc[nH]2)c2cc(F)c(Cl)cc2Cl)C(=O)N3)CC1 |
| 50 to 500 | COCCN1CCC(Nc2ccc3c(c2)/C(=C(\c2cc(F)cc(F)c2)c2nc4ccccc4[nH]2)C(=O)N3)CC1 |
| 500 to 5000 | CCN1CCC(Oc2ccc3c(c2)/C(=C(\c2ccccc2)c2nc4cc(OC)ccc4[nH]2)C(=O)N3)CC1 |
| > 5000 | CCN1CCC(Nc2ccc3c(c2)/C(=C(\c2cccc(F)c2)c2ncn[nH]2)C(=O)N3)CC1 |
| 500 to 5000 | CCN1CCC(Nc2ccc3c(c2)/C(=C(\c2ccc(OC)cc2)c2ncc[nH]2)C(=O)N3)CC1 |
| 500 to 5000 | COCCN1CCC(Nc2ccc3c(c2)/C(=C(\c2cccc(Cl)c2)c2ncc[nH]2)C(=O)N3)CC1 |
| 500 to 5000 | CCN1CCC(Nc2ccc3c(c2)/C(=C(\c2ccc(F)c(Cl)c2)c2ncc[nH]2)C(=O)N3)CC1 |

| SMILES | IC50 [nM] |
| --- | --- |
| CCN1CCC(N(C)c2ccc3c(c2)/C(=C(\c2cccc(Cl)c2)c2nc4ccccc4[nH]2)C(=O)N3)CC1 | 500 to 5000 |
